According to patent US20150307519A1, “SMALL MOLECULES FOR RESTORING FUNCTION TO P53 CANCER MUTANTS” (THE REGENTS OF THE UNIVERSITY OF CALIFORNIA, priority 2014, published 2015):

Tests used:
G245S DBD = biological target: T1, G245S DBD (Homo sapiens, UniProt P04637, G245S); experiment: DSF thermal stabilization of G245S DBD; assay type: binding; details: DSF assay
T1 construct: wild-type p53 protein DBD protein (residues 94-312 of the full length)
Experimental: (§1) To determine whether this stabilization was specific for copper, NSC319725 was also tested after addition of Fe(II)Cl2 and ZnCl2. […] NSC635448, […] were also tested for stabilization of G245S DBD and WT DBD in the DSF assay, yielding analogous results.
(§2) An equivalent volume of DMSO was used as a control. […] Sypro Orange stain (Bio-Rad, Hercules, Calif.) at 5,000× stock concentration was diluted to 5× concentration in 20 mM HEPES at pH 7.4 and added to each well of a 96-well plate. All SLS compounds were independently measured for fluorescence background to eliminate false positive results. […] All DSF assays were performed with a Touch RT-PCR system CFX96 (Bio-Rad) with the starting temperature of 4° C. by increasing the temperature of the plate 1.0° C. per min to 94° C. Fluorescence measurements were taken once every minute during all experiments. Tm values for each well, mean Tm values, and 95% confidence intervals were calculated with the program Prism 5 (GraphPad Software, La Jolla, Calif.) by fitting the raw fluorescence data to a Boltzmann sigmoidal curve.

[1] = biological target: T2, WT DBD (wild-type p53 DBD protein) (Homo sapiens, UniProt P04637); experiment: DSF thermal stabilization of WT DBD; assay type: binding; details: DSF assay
T2 construct: wild-type p53 protein DBD protein (residues 94-312 of the full length); made in house; host or cells: Escherichia coli Rosetta 2 (DE3), vector pSE420
Experimental: as §1, §2

[2] = system: Saos-2 cells expressing p53^G245S; experiment: Cell count / viability of Saos-2 cells with doxycyclin-inducible p53 G245S; assay type: cell-based; details: FIGS. 5A-5C; for p53 G245S-dependent cancer cell cytotoxicity: 27 hours
Description: ACS chemical biology, doi:10.1021/cb3005929 (2013).

SMILES	effect on Tm of G245S DBD (qualitative) (G245S DBD)	effect on Tm of WT DBD (qualitative) [1]	p53 G245S-dependent cancer cell cytotoxicity [2]	reactivation of p53^G245S in cells [2]
NS(=O)(=O)c1nc2nc[nH]c(=O)c2[nH]1 [NSC635448]	increased the Tm	increased the Tm	marked	marked efficacy
C/C(=N\NC(=S)N(C)C)c1ccccn1 [NSC319725, reference compound]	no effect or a slight destabilization	no effect or a slight destabilization	marked	
Cn1ncc2c(Nc3ccc(Br)cc3)nc(Nc3ccc(Br)cc3)nc21 [NSC11667]				marked efficacy
